Measurements taken from the NIST ThermoML archive (doi:10.1016/j.jct.2016.10.009).

Experiment: xn = mol fraction of the nth substance listed
Conditions: Liquid, Vibrating tube method

CC(C)OC(C)C [diisopropyl ether] + CCC(C)O
mass density [kg/m3]
Conditions	x2 = 0	x2 = 0.2036	x2 = 0.3227	x2 = 0.4464	x2 = 0.4973	x2 = 0.6595	x2 = 0.8482
293.15 K, 100 kPa	723.5	737.9	746.6	756.1	–	774.1	791.8
293.15 K, 1000 kPa	724.6	739	747.6	757	761.1	774.9	792.6
293.15 K, 5000 kPa	729.4	743.4	751.8	761.1	765	778.5	795.9
293.15 K, 10000 kPa	734.9	748.6	756.8	765.7	769.6	782.9	799.8
293.15 K, 15000 kPa	740	753.3	761.4	770.2	774	786.9	803.5
293.15 K, 20000 kPa	744.8	757.9	765.7	774.3	778.1	790.8	807.1
293.15 K, 25000 kPa	749.4	762.2	769.9	778.3	782	794.5	810.4
293.15 K, 30000 kPa	753.7	766.2	773.8	782.2	785.7	798	813.7
293.15 K, 35000 kPa	757.7	770.1	777.6	785.7	789.3	801.3	816.8
293.15 K, 40000 kPa	761.6	773.8	781.1	789.2	792.7	804.5	819.8
293.15 K, 45000 kPa	765.3	777.3	784.6	792.5	796	807.7	822.7
293.15 K, 50000 kPa	768.9	780.7	787.9	795.7	799.1	810.7	825.5
293.15 K, 55000 kPa	772.4	784	791.1	798.8	802.2	813.6	828.3
293.15 K, 60000 kPa	775.7	787.1	794.2	801.8	805.2	816.4	830.9
293.15 K, 65000 kPa	778.9	790.3	797.2	804.8	808.1	819.2	833.5
293.15 K, 70000 kPa	782	793.2	800.1	807.5	810.8	821.8	836
293.15 K, 80000 kPa	787.9	798.9	805.6	812.9	816.2	826.9	840.8
293.15 K, 90000 kPa	793.5	804.4	810.9	818.1	821.3	831.9	845.5
293.15 K, 100000 kPa	798.8	809.3	815.9	822.9	826	836.4	849.8
293.15 K, 110000 kPa	803.9	814.2	820.7	827.6	830.7	840.9	854.1
293.15 K, 120000 kPa	808.7	818.9	825.2	832.1	835.1	845.2	858.2
293.15 K, 130000 kPa	813.2	823.4	829.6	836.4	839.3	849.3	862.1
293.15 K, 140000 kPa	817.6	827.6	833.7	840.4	843.3	853.2	865.8
298.15 K, 100 kPa	718.3	732.9	741.7	751.2	755.4	769.4	787.5
298.15 K, 1000 kPa	719.6	734	742.8	752.2	756.4	770.3	788.3
298.15 K, 5000 kPa	724.5	738.6	747.1	756.3	760.5	774.1	791.7
298.15 K, 10000 kPa	730.2	743.9	752.2	761.2	765.2	778.5	795.7
298.15 K, 15000 kPa	735.6	748.8	757	765.8	769.7	782.8	799.6
298.15 K, 20000 kPa	740.5	753.5	761.5	770.1	773.9	786.7	803.2
298.15 K, 25000 kPa	745.2	757.9	765.7	774.2	777.9	790.5	806.6
298.15 K, 30000 kPa	749.6	762.1	769.8	778.1	781.8	794.1	810
298.15 K, 35000 kPa	753.7	766	773.6	781.7	785.4	797.5	813.1
298.15 K, 40000 kPa	757.8	769.8	777.3	785.3	788.9	800.8	816.2
298.15 K, 45000 kPa	761.6	773.4	780.8	788.7	792.2	804.1	819.2
298.15 K, 50000 kPa	765.2	776.9	784.2	792	795.5	807.1	822.1
298.15 K, 55000 kPa	768.8	780.3	787.5	795.2	798.6	810.1	824.9
298.15 K, 60000 kPa	772.2	783.5	790.6	798.2	801.6	812.9	827.6
298.15 K, 65000 kPa	775.4	786.6	793.7	801.2	804.5	815.7	830.2
298.15 K, 70000 kPa	778.6	789.7	796.6	804.1	807.4	818.5	832.8
298.15 K, 80000 kPa	784.6	795.5	802.3	809.6	812.8	823.7	837.7
298.15 K, 90000 kPa	790.3	801	807.7	814.9	818	828.7	842.4
298.15 K, 100000 kPa	795.7	806.1	812.7	819.8	822.9	833.3	846.9
298.15 K, 110000 kPa	800.8	811.1	817.6	824.5	827.5	837.9	851.2
298.15 K, 120000 kPa	805.6	815.8	822.1	829	832	842.1	855.3
298.15 K, 130000 kPa	810.3	820.3	826.5	833.3	836.3	846.3	859.2
298.15 K, 140000 kPa	814.6	824.6	830.9	837.5	840.4	850.3	863.1
313.15 K, 100 kPa	702.4	717.2	726.3	736.2	740.5	755.1	773.8
313.15 K, 1000 kPa	703.8	718.4	727.5	737.3	741.6	756.1	774.7
313.15 K, 5000 kPa	709.4	723.5	732.4	741.9	746.1	760.2	778.4
313.15 K, 10000 kPa	715.8	729.6	738.2	747.4	751.5	765.2	782.9
313.15 K, 15000 kPa	721.7	735	743.4	752.4	756.4	769.8	787.1
313.15 K, 20000 kPa	727.2	740.2	748.4	757.1	761	774.1	791.1
313.15 K, 25000 kPa	732.1	744.8	752.8	761.4	765.2	778	794.6
313.15 K, 30000 kPa	737.1	749.5	757.4	765.8	769.6	782.1	798.4
313.15 K, 35000 kPa	741.6	753.8	761.5	769.8	773.5	785.8	801.8
313.15 K, 40000 kPa	745.9	757.8	765.4	773.6	777.2	789.3	805.1
313.15 K, 45000 kPa	750	761.7	769.2	777.2	780.8	792.8	808.3
313.15 K, 50000 kPa	753.9	765.5	772.9	780.8	784.3	796.1	811.4
313.15 K, 55000 kPa	757.7	769.1	776.4	784.2	787.7	799.3	814.4
313.15 K, 60000 kPa	761.3	772.7	779.8	787.4	790.9	802.3	817.3
313.15 K, 65000 kPa	764.8	776	783.1	790.7	794.1	805.4	820.1
313.15 K, 70000 kPa	768.1	779.1	786.1	793.7	797	808.2	822.8
313.15 K, 80000 kPa	774.4	785.2	792.1	799.4	802.7	813.7	827.9
313.15 K, 90000 kPa	780.5	791	797.8	805	808.2	818.9	832.9
313.15 K, 100000 kPa	786.1	796.5	803.1	810.1	813.4	823.9	837.6
313.15 K, 110000 kPa	791.4	801.7	808.2	815.1	818.3	828.6	842.1
313.15 K, 120000 kPa	796.5	806.5	813	819.8	822.9	833	846.4
313.15 K, 130000 kPa	801.4	811.3	817.7	824.4	827.4	837.4	850.5
313.15 K, 140000 kPa	806	815.8	822	828.7	831.7	841.6	854.5
333.15 K, 100 kPa	680.5	695.4	704.8	715.1	719.6	734.7	754.2
333.15 K, 1000 kPa	682.1	696.9	706.3	716.4	720.9	735.9	755.4
333.15 K, 5000 kPa	688.9	703	712.1	721.9	726.3	740.8	759.7
333.15 K, 10000 kPa	696.4	709.9	718.7	728.2	732.4	746.5	764.8
333.15 K, 15000 kPa	703.2	716.4	724.8	734	738.1	751.8	769.6
333.15 K, 20000 kPa	709.4	722.2	730.4	739.3	743.4	756.7	774.1
333.15 K, 25000 kPa	715.1	727.6	735.7	744.4	748.3	761.3	778.2
333.15 K, 30000 kPa	720.5	732.7	740.5	749.1	752.9	765.7	782.3
333.15 K, 35000 kPa	725.6	737.5	745.2	753.6	757.3	769.8	786.2
333.15 K, 40000 kPa	730.3	742	749.6	757.8	761.5	773.7	789.8
333.15 K, 45000 kPa	734.8	746.3	753.7	–	–	–	–
